Laboratory results taken from US20170196854A1, “USE OF ANTHELMINTIC AGENTS AGAINST DIROFILARIA IMMITIS” (INTERVET INTERNATIONAL B.V., priority 2014, published 2017).

Columns and labels:
[1] = test system: Dirofilaria immitis microfilariae; assay: Microfilaricidal activity against Dirofilaria immitis microfilariae in 96-well plates; assay type: cell-based; settings: in Canis lupus familiaris, read-out: EC50 (half maximal effective concentration), microfilaricidal activity
[2] = test system: L4 larvae of Dirofilaria immitis; assay: microbe, parasite or virus in culture; assay type: cell-based; settings: 72 h, read-out: MIC100 (lowest dose that results in complete loss of motility)

In the case of C[C@@H](CN1CCN(c2ccc(OC(F)(F)F)cc2)CC1)C(=O)N1CCC(Nc2ccc([N+](=O)[O-])c(C(F)(F)F)c2)CC1 [Example 1037], the EC50 [1] is reported as less than 10 µM and the MIC [2] is reported as less than 5 µM.
